Several values for one entry are separate records, joined by “and”; a condition that tells them apart may be missing. Equal values may be shown once. Read-outs that look alike come from different tables or passages of the source.
Experiments:
Type in all cases: cell-based
[1] = test system: Mycosphaerella graminicola (Septoria tritici); assay: Mycosphaerella graminicola (Septoria tritici) liquid culture growth inhibition; conditions: for inhibition at 0.0008 ppm / inhibition at 0.0016 ppm / inhibition at 0.0031 ppm: Zymoseptoria tritici; for inhibition at 0.0008 ppm: read-out: Compound 1.001 inhibition (%), 0.0008 ppm; for inhibition at 0.0016 ppm: read-out: Compound 1.001 inhibition (%), 0.0016 ppm; for inhibition at 0.0031 ppm: read-out: Compound 1.001 inhibition (%), 0.0031 ppm
Protocol: (§1) Liquid Culture Tests in Well Plates
(§2) Mycelia fragments or conidia suspensions of a fungus, prepared either freshly from liquid cultures of the fungus or from cryogenic storage, were directly mixed into nutrient broth. DMSO solutions of the test compound (max. 10 mg/ml) was diluted with 0.025% Tween20 by factor 50 and 10 μl of this solution was pipetted into a microtiter plate (96-well format). The nutrient broth containing the fungal spores/mycelia fragments was then added to give an end concentration of the tested compound. The test plates were incubated in the dark at 24° C. and 96% rh. The inhibition of fungal growth was determined photometrically and visually after 2-4 days, depending on the pathosystem, and percent antifungal activity relative to the untreated check was calculated.
Mycosphaerella graminicola (Septoria tritici)/Liquid Culture:
(§3) Conidia of the fungus from cryogenic storage were directly mixed into nutrient broth (PDB potato dextrose broth). After placing a (DMSO) solution of test compound into a microtiter plate (96-well format), the nutrient broth containing the fungal spores was added.

Alternaria solani = Alternaria solani liquid culture growth inhibition; conditions: for inhibition at 0.0008 ppm: read-out: Compound 1.001 inhibition (%), 0.0008 ppm; for inhibition at 0.0016 ppm: read-out: Compound 1.001 inhibition (%), 0.0016 ppm; for inhibition at 0.0031 ppm: read-out: Compound 1.001 inhibition (%), 0.0031 ppm
Protocol: as §1
as §2, with “The nutrient broth containing the fungal spores/mycelia fragments was then added to give an end concentration of the tested compound.” left out
Alternaria solanil/Liquid Culture:
as §3

Pythium ultimum = Pythium ultimum (seedling damping off) liquid culture growth inhibition; conditions: Globisporangium ultimum, read-out: Compound 1.001 inhibition (%), PDB
Protocol: as §1, §2
Pythium ultimum Seedling Damping Off)/Liquid Culture:
Mycelia fragments and oospores of a newly grown liquid culture of the fungus were directly mixed into nutrient broth (PDB potato dextrose broth). After placing a (DMSO) solution of the test compounds into a microtiter plate (96-well format), the nutrient broth containing the fungal mycelia/spore mixture was added.

[2] = test system: Botryotinia fuckeliana (Botrytis cinerea); assay: Botryotinia fuckeliana (Botrytis cinerea) liquid culture growth inhibition; conditions: for inhibition at 0.0016 ppm: read-out: Compound 1.001 inhibition (%), 0.0016 ppm; for inhibition at 0.0125 ppm: read-out: Compound 1.001 inhibition (%), 0.0125 ppm
Protocol: as §1, §2
Botryotinia fuckeliana (Botrytis cinerea)/Liquid Culture:
Conidia of the fungus from cryogenic storage were directly mixed into nutrient broth (Vogels broth). After placing a (DMSO) solution of test compound into a microtiter plate (96-well format), the nutrient broth containing the fungal spores was added.

Fusarium culmorum = Fusarium culmorum liquid culture growth inhibition; conditions: for inhibition at 0.025 ppm: read-out: Compound 1.001 inhibition (%), 0.0250 ppm; for inhibition at 0.05 ppm: read-out: Compound 1.001 inhibition (%), 0.0500 ppm
Protocol: as §1, §2
Fusarium culmorum/Liquid Culture:
as §3

Gaeumannomyces graminis = Gaeumannomyces graminis liquid culture growth inhibition; conditions: Gaeumannomyces graminis, read-out: Compound 1.001 inhibition (%), in PDB
Protocol: as §1, §2
Gaeumannomyces graminis/Liquid Culture:
Mycelial fragments of the fungus from cryogenic storage were directly mixed into nutrient broth (PDB potato dextrose broth). After placing a (DMSO) solution of test compound into a microtiter plate (96-well format), the nutrient broth containing the fungal spores was added.

[3] = test system: Monographella nivalis (Microdochium nivale); assay: Monographella nivalis (Microdochium nivale) liquid culture growth inhibition
Protocol: as §1, §2
Monographella nivalis (Microdochium nivale)/Liquid Culture:
as §3

[4] = Alternaria solani, PDB, Table 7
[5] = Alternaria solani, PDB, Table 9
[6] = Alternaria solani, PDB, Table 11
[7] = Alternaria solani, PDB, Table 13
[8] = Botrytis cinerea, Vogels Broth, Table 6
[9] = Botrytis cinerea, in Vogels Broth
[10] = Fusarium culmorum, PDB, Table 4

CON(C(=O)c1cn(C)nc1C(F)F)C(C)Cc1c(Cl)cc(Cl)cc1Cl (stereo not drawn) [Compound 1.001, 3-(difluoromethyl)-N-methoxy-1-methyl-N-[1-methyl-2-(2,4,6-trichlorophenyl)ethyl]pyrazole-4-carboxamide]
Compound 1.001 inhibition (%) ([1]; 0.0016 ppm, in PDB): 33% | Compound 1.001 inhibition (%) ([1]; 0.0031 ppm, in PDB): 82% | inhibition at 0.0008 ppm ([1]; PDB, Table 8): 15% | inhibition at 0.0008 ppm ([1]; in PDB): 19% | inhibition at 0.0016 ppm ([1]; PDB, Table 8): 34% | inhibition at 0.0016 ppm ([1]; PDB, Table 12): 54% | inhibition at 0.0016 ppm ([1]; PDB, Table 14): 47% | inhibition at 0.0031 ppm ([1]; PDB, Table 8): 81% | inhibition at 0.0031 ppm ([1]; in PDB): 83% | Compound 1.001 inhibition (%) (Alternaria solani; 0.0016 ppm, in PDB): 74% | inhibition at 0.0004 ppm (Alternaria solani; Alternaria solani, read-out: Compound 1.001 inhibition (%), 0.0004 ppm, in PDB): 21% | inhibition at 0.0008 ppm (Alternaria solani; [4]): 36% | inhibition at 0.0008 ppm (Alternaria solani; [5]): 37% | inhibition at 0.0008 ppm (Alternaria solani; [6]): 42% | inhibition at 0.0008 ppm (Alternaria solani; [7]): 51% | inhibition at 0.0016 ppm (Alternaria solani; [4]): 57% | inhibition at 0.0016 ppm (Alternaria solani; [5]): 64% | inhibition at 0.0016 ppm (Alternaria solani; [6]): 68% | inhibition at 0.0016 ppm (Alternaria solani; [7]): 69% | inhibition at 0.0016 ppm (Alternaria solani; Alternaria solani, in PDB): 65% | inhibition at 0.0031 ppm (Alternaria solani; [4]): 81% | inhibition at 0.0031 ppm (Alternaria solani; [7]): 82% | inhibition at 0.0016 ppm (Pythium ultimum; 0.0016 ppm, Table 10): 0% | inhibition at 0.0031 ppm (Pythium ultimum; 0.0031 ppm, Table 10): 0% | inhibition at 0.0063 ppm (Pythium ultimum; 0.0063 ppm, Table 3): 11% | inhibition at 0.0125 ppm (Pythium ultimum; 0.0125 ppm, Table 3): 0% | inhibition at 0.025 ppm (Pythium ultimum; 0.0250 ppm, Table 3): 0% | inhibition at 0.05 ppm (Pythium ultimum; 0.0500 ppm, Table 3): 0% | inhibition at 0.1 ppm (Pythium ultimum; 0.1000 ppm, Table 3): 2% | inhibition at 0.2 ppm (Pythium ultimum; 0.2000 ppm, Table 3): 0% | Compound 1.001 inhibition (%) ([2]; 0.0016 ppm, in Vogels Broth): 33% and 29% | Compound 1.001 inhibition (%) ([2]; 0.0031 ppm, in Vogels Broth): 54% | Compound 1.001 inhibition (%) ([2]; 0.0063 ppm, in Vogels Broth): 62% and 38% | inhibition at 0.0004 ppm ([2]; Botrytis cinerea, read-out: Compound 1.001 inhibition (%), 0.0004 ppm, in Vogels Broth): 8% | inhibition at 0.0008 ppm ([2]; Botrytis cinerea, read-out: Compound 1.001 inhibition (%), 0.0008 ppm, in Vogels Broth): 21% | inhibition at 0.0016 ppm [2, 8]: 16% | inhibition at 0.0016 ppm [2, 9]: 26% | inhibition at 0.0031 ppm ([2]; Botrytis cinerea, read-out: Compound 1.001 inhibition (%), 0.0031 ppm, Vogels Broth, Table 6): 49% | inhibition at 0.0031 ppm ([2]; Botrytis cinerea, read-out: Compound 1.001 inhibition (%), 0.0031 ppm, in Vogels Broth): 44% | inhibition at 0.0063 ppm ([2]; Botrytis cinerea, read-out: Compound 1.001 inhibition (%), 0.0063 ppm, Vogels Broth, Table 6): 61% | inhibition at 0.0125 ppm [2, 8]: 79% | inhibition at 0.0125 ppm [2, 9]: 79% | inhibition at 0.0031 ppm ([2]; Botrytis cinerea, read-out: Compound 1.001 inhibition (%), compound 1.001 alone at 0.0031 ppm, in Vogels Broth): 40% | inhibition at 0.0063 ppm ([2]; Botrytis cinerea, read-out: Compound 1.001 inhibition (%), compound 1.001 alone at 0.0063 ppm, in Vogels Broth): 60% | Compound 1.001 inhibition (%) (Fusarium culmorum; 0.0250 ppm, in PDB): 27% and 34% and 29% | Compound 1.001 inhibition (%) (Fusarium culmorum; 0.0500 ppm, in PDB): 54% and 53% | Compound 1.001 inhibition (%) (Fusarium culmorum; 0.1000 ppm, in PDB): 57% | Compound 1.001 inhibition (%) (Fusarium culmorum; 0.2000 ppm, in PDB): 59% and 57% | inhibition at 0.0016 ppm (Fusarium culmorum; Fusarium culmorum, read-out: Compound 1.001 inhibition (%), 0.0016 ppm, PDB, Table 4): 7% | inhibition at 0.0031 ppm (Fusarium culmorum; Fusarium culmorum, read-out: Compound 1.001 inhibition (%), 0.0031 ppm, PDB, Table 4): 19% | inhibition at 0.0063 ppm (Fusarium culmorum; Fusarium culmorum, read-out: Compound 1.001 inhibition (%), 0.0063 ppm, PDB, Table 4): 14% | inhibition at 0.0125 ppm (Fusarium culmorum; Fusarium culmorum, read-out: Compound 1.001 inhibition (%), 0.0125 ppm, PDB, Table 4): 20% | inhibition at 0.025 ppm (Fusarium culmorum; [10]): 38% | inhibition at 0.025 ppm (Fusarium culmorum; Fusarium culmorum, in PDB): 24% | inhibition at 0.05 ppm (Fusarium culmorum; [10]): 46% | inhibition at 0.05 ppm (Fusarium culmorum; Fusarium culmorum, in PDB): 49% | inhibition at 0.1 ppm (Fusarium culmorum; Fusarium culmorum, read-out: Compound 1.001 inhibition (%), 0.1000 ppm, in PDB): 51% | inhibition at 0.2 ppm (Fusarium culmorum; Fusarium culmorum, read-out: Compound 1.001 inhibition (%), 0.2000 ppm, in PDB): 55% | inhibition at 0.025 ppm (Gaeumannomyces graminis; 0.0250 ppm): 0% | inhibition at 0.05 ppm (Gaeumannomyces graminis; 0.0500 ppm): 0% | inhibition at 0.2 ppm (Gaeumannomyces graminis; 0.2000 ppm): 0% | Compound 1.001 inhibition (%) ([3]; 0.0008 ppm, in PDB): 3% | Compound 1.001 inhibition (%) ([3]; 0.0250 ppm, in PDB): 5% | Compound 1.001 inhibition (%) ([3]; 0.0500 ppm, in PDB): 48% | inhibition at 0.0004 ppm ([3]; Monographella nivalis, read-out: Compound 1.001 inhibition (%), 0.0004 ppm, PDB, Table 5): 0% | inhibition at 0.0008 ppm ([3]; Monographella nivalis, read-out: Compound 1.001 inhibition (%), 0.0008 ppm, PDB, Table 5): 0% | inhibition at 0.0008 ppm ([3]; Monographella nivalis, read-out: Compound 1.001 inhibition (%), 0.0008 ppm, in PDB): 2% | inhibition at 0.0016 ppm ([3]; Monographella nivalis, read-out: Compound 1.001 inhibition (%), 0.0016 ppm, PDB, Table 5): 0% | inhibition at 0.0016 ppm ([3]; Monographella nivalis, read-out: Compound 1.001 inhibition (%), 0.0016 ppm, in PDB): 0% | inhibition at 0.0031 ppm ([3]; Monographella nivalis, read-out: Compound 1.001 inhibition (%), 0.0031 ppm, PDB, Table 5): 0% | inhibition at 0.0125 ppm ([3]; Monographella nivalis, read-out: Compound 1.001 inhibition (%), 0.0125 ppm, in PDB): 0% | inhibition at 0.05 ppm ([3]; Monographella nivalis, read-out: Compound 1.001 inhibition (%), 0.0500 ppm, in PDB): 51% | inhibition at 0.0004 ppm ([3]; Monographella nivalis, read-out: Compound 1.001 inhibition (%), compound 1.001 alone at 0.0004 ppm, in PDB): 4% | inhibition at 0.0008 ppm ([3]; Monographella nivalis, read-out: Compound 1.001 inhibition (%), compound 1.001 alone at 0.0008 ppm, in PDB): 1% | inhibition at 0.0016 ppm ([3]; Monographella nivalis, read-out: Compound 1.001 inhibition (%), compound 1.001 alone at 0.0016 ppm, in PDB): 0% | inhibition at 0.0063 ppm ([3]; Monographella nivalis, read-out: Compound 1.001 inhibition (%), compound 1.001 alone at 0.0063 ppm, in PDB (Table 38)): 0% | inhibition at 0.0125 ppm ([3]; Monographella nivalis, read-out: Compound 1.001 inhibition (%), compound 1.001 alone at 0.0125 ppm, in PDB): 0% | inhibition at 0.0125 ppm ([3]; Monographella nivalis, read-out: Compound 1.001 inhibition (%), compound 1.001 alone at 0.0125 ppm, in PDB (Table 38)): 0%
